Test results from publication PMC10886690, “Synthesis, Characterization, Antioxidant, and Anticancer Activity against Colon Cancer Cells of Some Cinnamaldehyde-Based Chalcone Derivatives” (Biomolecules, 2024).
Entries after “also recorded” stand apart in the source; their conditions may differ. Read-outs that look alike come from different tables or passages of the source.

Experiments:
Caco-2 cells [1] = test: MTT cytotoxicity against Caco-2 cells; format: cell-based, human; details: 24 h incubation, mean ± SD of three analyses, read-out: IC50 Conc. against Caco-2 cells
Protocol: (§1) The American Type Culture Collection (ATCC) provided WI-38 (ATCC CCL-75), a cell line from the healthy human embryonic lung, and Caco-2 (ATCC HTB-37), a cell line from colon cancer. These cells were developed in DMEM medium that was supplemented with antibiotics and fetal bovine serum in a 5% CO2 humidified incubator at 37 °C.
The toxicity of the tested compounds (3a–3k) toward Caco-2 cancer cells was examined and compared to 5-Fluorouracil (5-FU, the standard reference drug) utilizing MTT assay, as previously explained. In brief, 1 × 10^5 Caco-2 cells/mL were distributed into each well of a 96-well plate and kept overnight at 37 °C in their growth mixture. The cells were then subjected to the various doses of the studied compounds (50–1000 µM). Following that, the cells were exposed to MTT solution, which induced formazan formation from the MTT, a byproduct of the metabolism of MTT that is proportionate to the quantity of intact cells. To further dissolve the formazan crystal, dimethyl sulfoxide was applied to the cells. Caco-2 survival was obtained through measuring the value of the optical density at 570 nm implementing a microplate reader (Bio-Rad, Hercules, CA, USA), and the effect of the substances on cell proliferation was expressed using the aforementioned formula (2):Cell viability % = (Abs. of tested sample − Abs. of blank)/(Abs. of control − Abs. of blank) × 100(2)
The half-suppression (IC50) dose of the test drugs over a 24 h incubation period was identified through examination of the concentration–response curve. Each value was evaluated three times, and the average of the three ratings was employed to obtain the results.

[2] = DPPH free-radical scavenging (antioxidant) assay; details: 40–200 µM in methanol, versus ascorbic acid
Protocol: The potential of several compounds to scavenge DPPH free radicals was quantified employing a colorimetric approach. Various doses of all tested compounds (3a–3k) were prepared in methanol (40–200 µM), and standard solutions of ascorbic acid (40–200 µM) were made by dissolving the compound in methanol. After determining the optimal concentration of each compound and ascorbic acid, the solutions were supplemented with DPPH. The radical scavenging capacity (RSC) was calculated by measuring the absorbance at 517 nm and using the Formula (1):% DPPH RSC = (Abs. of control − Abs. of sample or standard)/Abs. of control × 100(1)

Caco-2 cells [3] = test: LDH release ELISA in treated Caco-2 cells; format: cell-based, human; details: compound-treated Caco-2 cells, p < 0.001
Protocol: The amount of lactate dehydrogenase enzyme (LDH) secreted by compound 3e-treated Caco-2 cells was measured using the double-antibody-sandwich ELISA method (Sun-Red, Cat. N. 201-28-0094) to confirm the cytotoxic impact of the tested chemical on Caco-2 cells. Specifically, 40 µL of the supernatant obtained from centrifuging the Caco-2 cells that had been treated with the 3e compound was added to the test wells. Next, LDH-antibody (10 µL) and Streptavidin-HRP (50 µL) were transferred to every well. After 60 min of incubation at 37 °C, the 96-well plate was shaken gently. […] The 96-well plate was then gently shaken and left to incubate for 60 min at 37 °C. The plates were then washed, and each test well received 50 µL of chromogen solution A and 50 µL of chromogen solution B. The plates were then incubated at 37 °C, and darkened for 10 min. Stop solution (50 µL) was then applied to each well. Once testing was complete, 450 nm was used to determine the plate’s optical density (OD). The amount of released LDH was calculated using the standard curve that had been previously established.

BCL-2 [4] = test: ELISA of BCL-2 protein in Caco-2 cells; format: cell-based, human; details: Caco-2, IC50 dose
Protocol: (§2) Protein expression levels of the under investigation genes were evaluated in Caco-2 cells treated with compound 3e using an ELISA assay. Three different ELISA kits were used: one for BAX (ab199080), one for cleaved Caspase-3 (ab220655), and one for BCL-2 (ab272102), which were supplied via Abcam (Cambridge, UK). All of these kits are based on a single, highly sensitive sandwich enzyme assay that lasts 90 min and uses a precoated ELISA plate and an anti-tag antibody to capture antibodies that have been labeled with an affinity tag. The tested compound 3e-treated cultured Caco-2 cells were centrifuged, the resulting pellets were discarded, and the residual supernatant was mixed with an antibody cocktail solution in a 96-well ELISA plate. The plate was then incubated for 1 h at room temperature. After thoroughly rinsing the plate in wash buffer (1×), in each well, a ten min incubation period of tetramethylbenzidine substrate solution was conducted. Following that, the plate was stored in a dim area. The intensity at 450 nm was then measured with a microplate reader immediately after a stop solution was added.

BAX [5] = test: qRT-PCR of BAX mRNA in Caco-2 cells; format: cell-based, human; details: Caco-2, IC50 concentration
Description: (§3) The relative amounts of messenger RNA (mRNA) for apoptosis-related genes (BCL-2, Caspase-3, and BAX) have been monitored in order to look into potential processes relating to the effect of the tested 3e compound on apoptosis inside the treated Caco-2 cancer cells. In a nutshell, Thermo Fisher Scientific’s RNA purification kit (Waltham, MA, USA) (catalog #K0731) was used to isolate total RNA from both control- and Caco-2-treated cells, as per the manufacturer’s instructions. The ratio of A260/A280 was then quantified using a spectrophotometer to figure out the amounts of extracted RNA in each sample. Then, following the manufacturer’s instructions, first-strand cDNA was produced from the collected RNA samples using a kit made by Thermo Fisher Scientific called RevertAid (catalog #K1621). Real-time PCR amplification was performed on an Applied Biosystems StepOnePlusTM instrument using the Thermo Fisher Scientific Maxima SYBR Green qPCR kit (catalog #K0221) and gene-specific primers (Invitrogen, Waltham, MA, USA), as detailed in Table 3. Then, the relative quantification (RQ) of the utilized genes was calculated using a comparative threshold cycle approach, compared against their varied expression in the untreated samples, and normalized to B-actin as a housekeeping gene. […]

BAX [6] = test: ELISA of BAX protein in Caco-2 cells; format: cell-based, human; details: Caco-2, IC50 dose
Protocol: as §2

Caco-2 cells [7] = test: Comet assay (DNA fragmentation); format: cell-based, human
Description: The production of genotoxicity in Caco-2 cells treated with compound 3e was investigated using a comet test. Caco-2 cells were pretreated with a caspase-3 inhibitor (Z-DEVD-FMK) to ascertain whether or not caspase-3 activity contributed to the DNA damage induced by compound 3e. Using the comet test, in order to assess the influence of compound 3e upon DNA damage, Caco-2 cells were subjected to either compound 3e separately (IC50 concentration) or compound 3e (IC50 concentration) following prior treatment with Z-DEVD-FMK ([…]) for 1 h. Broken strands of broken DNA will detach from intact strands of cellular DNA during fragmentation, producing a structure similar to a comet tail visible under a fluorescence microscope (Carl Zeiss, Axiostar Plus 1169–149, Jena, Germany). For each slide, 100 photos of comets of varying shapes were captured using a computerized image analysis system. Afterwards, the photos were analyzed using the TriTek Comet ScoreTM program (TriTek Corp., Sumerduck, VA, USA) to gather information about the comet’s properties. The tail DNA and tail moment, two often-utilized markers, were built to be used in discovering the data. The Olive tail moment (OTM), which is also called a tail moment parameter, is generally accepted as the gold standard for evaluating DNA damage. Its value, which was calculated using Equation (3), is proportional to the tail’s DNA mobility and DNA abundance. OTM = quantity of tail moment × quantity of tail DNA divided by 100(3)

Caspase-3 = test: qRT-PCR of Caspase-3 mRNA in Caco-2 cells; format: cell-based, human; details: Caco-2, IC50 concentration
Description: as §3

Caco-2 cells [8] = test: Annexin V/PI flow cytometry apoptosis assay; format: cell-based, human; details: Caco-2, IC50 dose, 24 h
Protocol: The annexin V/PI assay focuses on the translocation of phosphatidylserine (PS) from the inner plasma membrane toward the cell surface within apoptotic cells. Accordingly, the Annexin V-FITC detection kit I (BD Biosciences) was implemented to figure out the numbers of apoptotic and necrotic cells in both the compound 3e-treated and untreated Caco-2 cells for 24 h.. In brief, Caco-2 cells were collected, expanded in 6-well culture dishes with 1 × 10^6 cells per well, and then allowed to incubate for an overnight period to promote cell adhesion and proliferation. After only 24 h in the presence of the 3e compound, the cells were trypsinized, centrifuged, rinsed with PBS, and then mixed with a solution containing Annexin V binding buffer (1×) before being exposed to the Annexin V-FITC and propidium iodide stains. At last, a flow cytometer (BD FACSCalibur™, Biosciences, San Jose, CA, USA) was implemented to find the amount of early as well as late apoptotic cells, and the outcomes were presented graphically.

BCL-2 [9] = test: qRT-PCR of BCL-2 mRNA in Caco-2 cells; format: cell-based, human; details: Caco-2, IC50 concentration
Description: as §3

wi38 cells = test: MTT test on healthy WI38 cells; format: cell-based, human; details: 24 h; for effect on wi38 normal cell viability: 50 to 1000 µM
Protocol: as §1
The effects of the investigated compounds on the survival of healthy cells, WI38, have been evaluated and compared to 5-Fluorouracil (5-FU, the standard reference drug) utilizing the MTT test at concentrations ranging from 50 to 1000 µM to further determine whether the substances were secure for usage on living tissues. Three distinct evaluations of each value were carried out to calculate the final findings.

cleaved Caspase-3 = test: ELISA of cleaved Caspase-3 protein in Caco-2 cells; format: cell-based, human; details: Caco-2, IC50 dose
Protocol: as §2

[10] = Caco-2, IC50 concentration after pretreatment with Caspase-3 inhibitor Z-DEVD-FMK for 1 h
[11] = Caco-2, compound alone at IC50 concentration, without Caspase-3 inhibitor

| Compound | melting point [°C] | IC50 (Caco-2 cells [1]; Homo sapiens, Caco-2, 24 h) [µM] | other results |
| --- | --- | --- | --- |
| O=C(/C=C/C=C/c1ccccc1)c1ccccn1 [3a, (2E,4E)-5-phenyl-1-(pyridin-2-yl)penta-2,4-dien-1-one] | 182 | 725.6 ± 3.69 |  |
| O=C(/C=C/C=C/c1ccccc1)c1cccnc1 [3b, (2E,4E)-5-phenyl-1-(pyridin-3-yl)penta-2,4-dien-1-one] | 104 | > 1000 |  |
| O=C(/C=C/C=C/c1ccccc1)c1cccs1 [3c, (2E,4E)-5-phenyl-1-(thiophen-2-yl)penta-2,4-dien-1-one] | 102 | > 1000 |  |
| O=C(/C=C/C=C/c1ccccc1)c1ccco1 [3d, (2E,4E)-1-(furan-2-yl)-5-phenylpenta-2,4-dien-1-one] |  | > 1000 |  |
| O=C(/C=C/C=C/c1ccccc1)c1ccc[nH]1 [3e, (2E,4E)-5-phenyl-1-(1H-pyrrol-2-yl)penta-2,4-dien-1-one] | 170 | 32.1 ± 3.92 | antioxidant activity (DPPH scavenging, IC50) compared with the other compounds [2]: highest effective antioxidant activity; LDH levels versus untreated Caco-2 cells (Caco-2 cells [3]): considerably increased; BCL-2 protein level versus untreated cells (BCL-2 [4]): decreased; BAX mRNA expression level versus untreated cells (BAX [5]): increased considerably; BAX protein level versus untreated cells (BAX [6]): increased levels; % DNA in Tail (Caco-2 cells [7]; [10]): 4.55± 1.73; Olive Tail Moment (OTM) (Caco-2 cells [7]; [10]): 0.69± 0.16; Tail Moment (Caco-2 cells [7]; [10]): 0.44± 0.08; % DNA in Tail (Caco-2 cells [7]; [11]): 8.18 ± 0.56; Olive Tail Moment (OTM) (Caco-2 cells [7]; [11]): 1.92 ± 0.04; Tail Moment (Caco-2 cells [7]; [11]): 1.19 ± 0.03; Caspase-3 mRNA expression level versus untreated cells (Caspase-3): increased considerably; percentage of apoptotic cells (early and late) versus untreated (Caco-2 cells [8]): much greater percentage of apoptotic cells; BCL-2 mRNA expression level versus untreated cells (BCL-2 [9]): substantial reduction; IC50 (Caco-2 cells [1]): 32.2 ± 3.92 µM; effect on wi38 normal cell viability (wi38 cells): higher % of wi38 cell viability; also recorded: no detrimental effects; cleaved Caspase-3 protein level versus untreated cells (cleaved Caspase-3): increased levels |
| COc1ccccc1/C=C/C=C/C(=O)c1ccccn1 [3f, (2E,4E)-5-(2-methoxyphenyl)-1-(pyridin-2-yl)penta-2,4-dien-1-one] | 195 | 173 ± 3.84 |  |
| COc1ccccc1/C=C/C=C/C(=O)c1ccc[nH]1 [3g, (2E,4E)-5-(2-methoxyphenyl)-1-(1H-pyrrol-2-yl)penta-2,4-dien-1-one] | 177 | 336 ± 4.96 |  |
| O=C(/C=C/C=C/c1ccc([N+](=O)[O-])cc1)c1ccccn1 [3h, (2E,4E)-5-(4-nitrophenyl)-1-(pyridin-2-yl)penta-2,4-dien-1-one] | 205 | 548.6 ± 3.76 |  |
| O=C(/C=C/C=C/c1ccc([N+](=O)[O-])cc1)c1cccnc1 [3i, (2E,4E)-5-(4-nitrophenyl)-1-(pyridin-3-yl)penta-2,4-dien-1-one] |  | 207 ± 2.31 |  |
| O=C(/C=C/C=C/c1ccc([N+](=O)[O-])cc1)c1cccs1 [3j, (2E,4E)-5-(4-nitrophenyl)-1-(thiophen-2-yl)penta-2,4-dien-1-one] | 218 | 149 ± 2.55 |  |
| O=C(/C=C/C=C/c1ccc([N+](=O)[O-])cc1)c1ccco1 [3k, (2E,4E)-1-(furan-2-yl)-5-(4-nitrophenyl)penta-2,4-dien-1-one] | 189 | 130 ± 3.28 |  |
| O=c1[nH]cc(F)c(=O)[nH]1 [5-FU, 5-Fluorouracil, reference compound] |  | 33.1 ± 1.45 | effect on wi38 normal cell viability (wi38 cells): decrease in wi38 cell viability with increasing its concentration; IC50 (wi38 cells; Homo sapiens, WI-38, 50–1000 µM, read-out: IC50 against normal wi38 cell): 22.8 ± 2.46 µM |
